Measurements: patent US10099993B2, “Metabotropic glutamate receptor positive allosteric modulators (PAMS) and uses thereof” (Sanford-Burnham Medical Research Institute, priority 2014, dated 2018)
“Also recorded” adds a separate entry of the source. Like-named read-outs stand apart in the source and are kept apart here.

What was measured:
[1] = system: cocaine-maintained responding in rats; test: Cocaine self-administration experiment; assay type: in vivo, rat
Protocol: (§1) Subjects. Male Wistar rats (Charles River Laboratories, Raleigh, N.C.) weighing 300-350 g at the beginning of each experiment were housed in pairs in standard rat Plexiglas cages with food and water available ad libitum, except during food training and the food self-administration experiment (see below). Rats were maintained in a climate-controlled room at 21° C. on a 12 h reverse light/dark cycle and all experiments were conducted during the dark (i.e., active) phase (7:00 h-19:00 h) of the cycle under dim red lighting. All procedures were conducted in accordance with the guidelines from the National Institutes of Health and the Association for the Assessment and Accreditation of Laboratory Animal Care and were approved by the Institutional Animal Care and Use Committee.
Drugs. Cocaine hydrochloride (National Institute on Drug Abuse, Bethesda, Md.) was dissolved in sterile physiological saline and filtered through a 0.22 μm syringe filter (Fisher Scientific, Pittsburgh, Pa.) for sterilization purposes.
Food Training. […]
(§2) Statistical Analyses. […] Significant effects were further analyzed with Tukey post hoc tests. […]

[2] = system: food-maintained responding in rats; test: Food self-administration experiment; assay type: in vivo, rat; settings: rats, 0, 10, 20, 40 mg/kg i.p., 60 min pretreatment
Protocol: as §1
Food Training. Details regarding the experimental procedures have been described previously.^37 All rats were placed under food restriction (20 g food/day) and trained during daily 1 hr sessions to lever press for 45 mg food pellets (Research Diets, New Brunswick, N.J.) under a fixed ratio 1 reinforcement schedule with a 1 s time-out period (FR1 TO1s). Successful responses were followed by illumination of a cue light for the duration of the time-out period, when lever presses had no consequence. […]
as §2

[3] = In vivo PK in rats, i.p. administration; settings: 10 mg/kg; for Kp at 30 min: rat, brain and plasma, ip
[4] = system: cocaine-maintained responding in rats; settings: previously shown (Jin, X. et al. 2010); cited from earlier work
[5] = system: food-maintained responding in rats; settings: previously shown (Jin, X. et al. 2010); cited from earlier work
[6] = system: R6/2 mice; settings: cited from earlier work
[7] = system: cultured spinal cord astrocytes; settings: wild-type and mGlu2 knockout mice, not mGlu3 knockout; cited from earlier work
[8] = system: SMI-32+ motor neurons; settings: mixed cultures of spinal cord cells; cited from earlier work
[9] = system: spinal cord GDNF levels; settings: 0.5, 1 or 5 mg/kg i.p., wild-type and mGlu2 knockout mice; cited from earlier work
[10] = system: SOD1G93A mice; settings: continuous treatment 1 or 5 mg/kg/day; cited from earlier work
[11] = system: reserpine-treated rat; settings: cited from earlier work
[12] = system: 6-OHDA lesioned nigrostriatal tract; settings: cited from earlier work
[13] = system: GDNF mRNA and protein levels; settings: 0.25-3 mg/kg, i.p.; cited from earlier work
[14] = system: nigrostriatal damage induced by 1-methyl-4-phenyl-1,2,3,6-tetrahydropyridine; settings: acute or repeated injections 0.25 or 3 mg/kg, i.p., mice; cited from earlier work
[15] = target: mGlu1 (Rattus norvegicus (Rat), UniProt P23385); test: mGlu1 calcium assay; assay type: cell-based; settings: full agonist concentration-response ± 10 μM compound
[16] = target: mGlu4 (Rattus norvegicus (Rat), UniProt P31423); test: mGlu4 GIRK thallium flux assay; assay type: cell-based; settings: full agonist concentration-response ± 10 μM compound
[17] = target: mGlu5 (Rattus norvegicus (Rat), UniProt P31424); test: mGlu5 calcium assay; assay type: cell-based; settings: full agonist concentration-response ± 10 μM compound
[18] = target: mGlu6 (Rattus norvegicus (Rat), UniProt P35349); test: mGlu6 GIRK thallium flux assay; assay type: cell-based; settings: full agonist concentration-response ± 10 μM compound
[19] = target: mGlu7 (Rattus norvegicus (Rat), UniProt P35400); test: mGlu7 GIRK thallium flux assay; assay type: cell-based; settings: full L-AP4 concentration-response ± 10 μM compound
[20] = target: mGlu8 (Rattus norvegicus (Rat), UniProt P70579); test: mGlu8 GIRK thallium flux assay; assay type: cell-based; settings: full agonist concentration-response ± 10 μM compound
[21] = target: T1, mGlu2 (Rattus norvegicus (Rat), UniProt P31421); test: HEK293A mGlu2 Gα15 calcium assay; assay type: cell-based; settings: presence of an EC20 of glutamate
[22] = target: T2, mGlu3 (Rattus norvegicus (Rat), UniProt P31422); test: TREx293 mGlu3 Gα15 calcium assay; assay type: cell-based; settings: presence of an EC20 of glutamate, 20 ng/mL Tet for 20 h
Protocol: In order to generate a tetracycline (Tet)-inducible rat mGlu3 stable cell line to be used for a calcium mobilization assay, TREx293 cells (Invitrogen) were transfected with mouse Gα15-pCMV6 plasmid (Origene) using Fugene6 (Promega). The cells were selected for Gα15 expression with 1 mg/mL G418 in the presence of 10 μg/ml blasticidin to maintain Tet Repressor expression. Two weeks after the selection, polyclonal TREx293 Gα15 cells were obtained. The entire coding sequence of rat mGlu3 was amplified by polymerase chain reaction (PCR) and cloned into the Tet-inducible expression plasmid pcDNA5/TO (Invitrogen). Rat mGlu3-pcDNA5/TO was transfected into TREx293 Gα15 cells and selected for mGlu3 expression with 200 μg/ml hygromycin in the presence of G418 and blasticidin.
For mGlu3 the TREx tetracycline-inducible system (Invitrogen) was utilized. […] In the absence of Tet, no measurable expression of mGlu3 is detected either by Western blot (FIG. 3A) or by functional response to calcium mobilization (FIG. 3B). […] Data were analyzed using nonlinear regression. Data were obtained from three separate experiments performed in triplicate, normalized to the response to 100 μM glutamate in each experiment, and are expressed as the mean±SEM.

[23] = In vivo PK in rats, p.o. administration; parameters: species or system rat; settings: 20 mg/kg
[24] = In vivo PK in rats, i.v. administration; parameters: species or system rat; settings: 2 mg/kg
[25] = target: T1, mGlu2; test: mGlu2 GIRK thallium flux assay;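 note: Cell-based assay, rate of fluorescence rise right after thallium plus agonist addition read on a kinetic imaging plate reader, normalized to vehicle and maximal agonist control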
[26] = target: T2, mGlu3; test: mGlu3 GIRK thallium flux assay;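 note: kinetic fluorescence slope read shortly after thallium plus agonist addition, scaled between vehicle and maximal agonist control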
[27] = compound concentration-response in presence and absence of EC20 glutamate
[28] = full agonist concentration-response ± 10 μM compound

T2 sequence (P31422 23-879): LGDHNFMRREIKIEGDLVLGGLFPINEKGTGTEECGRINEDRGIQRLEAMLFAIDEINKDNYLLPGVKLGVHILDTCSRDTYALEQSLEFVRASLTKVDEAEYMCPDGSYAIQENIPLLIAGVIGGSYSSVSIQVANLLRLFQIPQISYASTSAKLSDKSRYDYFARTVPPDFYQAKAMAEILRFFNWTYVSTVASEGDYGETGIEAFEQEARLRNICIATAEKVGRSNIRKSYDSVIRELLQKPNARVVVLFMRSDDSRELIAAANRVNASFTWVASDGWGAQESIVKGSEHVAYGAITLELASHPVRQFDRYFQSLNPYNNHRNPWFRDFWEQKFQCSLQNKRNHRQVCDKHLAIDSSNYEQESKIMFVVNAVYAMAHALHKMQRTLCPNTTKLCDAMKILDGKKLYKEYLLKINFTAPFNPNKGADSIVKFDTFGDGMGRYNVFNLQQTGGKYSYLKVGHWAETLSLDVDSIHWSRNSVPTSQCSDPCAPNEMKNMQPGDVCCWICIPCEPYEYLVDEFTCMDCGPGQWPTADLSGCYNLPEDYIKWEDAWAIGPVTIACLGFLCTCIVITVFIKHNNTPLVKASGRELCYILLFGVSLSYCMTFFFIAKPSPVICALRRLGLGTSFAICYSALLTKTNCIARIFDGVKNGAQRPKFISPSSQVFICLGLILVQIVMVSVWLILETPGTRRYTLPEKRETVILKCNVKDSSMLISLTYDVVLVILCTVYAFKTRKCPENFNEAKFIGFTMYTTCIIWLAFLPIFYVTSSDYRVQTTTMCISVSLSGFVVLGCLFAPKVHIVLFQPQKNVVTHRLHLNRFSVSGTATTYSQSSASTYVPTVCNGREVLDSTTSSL
T1 sequence (P31421 19-872): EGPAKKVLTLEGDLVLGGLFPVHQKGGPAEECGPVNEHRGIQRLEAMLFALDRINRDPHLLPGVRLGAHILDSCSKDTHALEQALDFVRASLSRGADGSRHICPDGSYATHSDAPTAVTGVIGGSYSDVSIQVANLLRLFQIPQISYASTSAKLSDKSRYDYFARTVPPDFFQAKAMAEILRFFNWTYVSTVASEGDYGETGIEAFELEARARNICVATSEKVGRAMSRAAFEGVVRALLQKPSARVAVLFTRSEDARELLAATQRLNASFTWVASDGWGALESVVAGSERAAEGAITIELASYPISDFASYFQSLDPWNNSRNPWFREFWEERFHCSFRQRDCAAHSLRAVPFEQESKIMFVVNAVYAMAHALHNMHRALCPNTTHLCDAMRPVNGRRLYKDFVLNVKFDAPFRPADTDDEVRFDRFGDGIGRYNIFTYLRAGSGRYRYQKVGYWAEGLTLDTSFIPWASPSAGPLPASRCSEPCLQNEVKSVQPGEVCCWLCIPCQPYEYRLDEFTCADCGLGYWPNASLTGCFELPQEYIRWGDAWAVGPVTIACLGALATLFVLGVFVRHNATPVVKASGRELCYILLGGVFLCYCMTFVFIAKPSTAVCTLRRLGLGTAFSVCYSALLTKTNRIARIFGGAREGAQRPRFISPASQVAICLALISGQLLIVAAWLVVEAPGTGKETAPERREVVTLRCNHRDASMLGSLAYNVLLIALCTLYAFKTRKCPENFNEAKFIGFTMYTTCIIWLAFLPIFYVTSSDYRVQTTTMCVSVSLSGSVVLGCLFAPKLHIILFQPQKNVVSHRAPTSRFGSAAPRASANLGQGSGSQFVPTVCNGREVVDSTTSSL
Chain of mGlu6 (P35349 24-871): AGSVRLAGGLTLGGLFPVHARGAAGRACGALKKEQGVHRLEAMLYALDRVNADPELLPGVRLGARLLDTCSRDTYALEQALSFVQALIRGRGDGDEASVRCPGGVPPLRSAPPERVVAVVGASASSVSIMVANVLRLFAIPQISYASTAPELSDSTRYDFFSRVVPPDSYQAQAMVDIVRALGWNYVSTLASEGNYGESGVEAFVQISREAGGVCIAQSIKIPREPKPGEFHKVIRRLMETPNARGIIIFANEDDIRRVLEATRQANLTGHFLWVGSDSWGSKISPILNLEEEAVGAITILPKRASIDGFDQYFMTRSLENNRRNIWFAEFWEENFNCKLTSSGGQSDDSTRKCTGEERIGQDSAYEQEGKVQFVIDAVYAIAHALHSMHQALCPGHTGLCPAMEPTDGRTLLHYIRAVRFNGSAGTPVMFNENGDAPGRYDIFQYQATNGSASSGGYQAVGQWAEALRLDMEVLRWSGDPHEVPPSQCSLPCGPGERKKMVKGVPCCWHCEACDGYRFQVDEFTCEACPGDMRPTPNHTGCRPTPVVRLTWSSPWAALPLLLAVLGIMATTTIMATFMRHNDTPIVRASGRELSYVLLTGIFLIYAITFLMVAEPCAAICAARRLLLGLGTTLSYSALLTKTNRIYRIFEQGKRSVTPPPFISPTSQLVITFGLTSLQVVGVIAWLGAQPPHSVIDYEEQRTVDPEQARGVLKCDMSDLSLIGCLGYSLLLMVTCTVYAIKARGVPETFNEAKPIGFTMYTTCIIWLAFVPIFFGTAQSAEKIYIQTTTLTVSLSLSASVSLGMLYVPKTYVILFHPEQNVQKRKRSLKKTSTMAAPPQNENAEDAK
Chain of mGlu4 (P31423 33-912): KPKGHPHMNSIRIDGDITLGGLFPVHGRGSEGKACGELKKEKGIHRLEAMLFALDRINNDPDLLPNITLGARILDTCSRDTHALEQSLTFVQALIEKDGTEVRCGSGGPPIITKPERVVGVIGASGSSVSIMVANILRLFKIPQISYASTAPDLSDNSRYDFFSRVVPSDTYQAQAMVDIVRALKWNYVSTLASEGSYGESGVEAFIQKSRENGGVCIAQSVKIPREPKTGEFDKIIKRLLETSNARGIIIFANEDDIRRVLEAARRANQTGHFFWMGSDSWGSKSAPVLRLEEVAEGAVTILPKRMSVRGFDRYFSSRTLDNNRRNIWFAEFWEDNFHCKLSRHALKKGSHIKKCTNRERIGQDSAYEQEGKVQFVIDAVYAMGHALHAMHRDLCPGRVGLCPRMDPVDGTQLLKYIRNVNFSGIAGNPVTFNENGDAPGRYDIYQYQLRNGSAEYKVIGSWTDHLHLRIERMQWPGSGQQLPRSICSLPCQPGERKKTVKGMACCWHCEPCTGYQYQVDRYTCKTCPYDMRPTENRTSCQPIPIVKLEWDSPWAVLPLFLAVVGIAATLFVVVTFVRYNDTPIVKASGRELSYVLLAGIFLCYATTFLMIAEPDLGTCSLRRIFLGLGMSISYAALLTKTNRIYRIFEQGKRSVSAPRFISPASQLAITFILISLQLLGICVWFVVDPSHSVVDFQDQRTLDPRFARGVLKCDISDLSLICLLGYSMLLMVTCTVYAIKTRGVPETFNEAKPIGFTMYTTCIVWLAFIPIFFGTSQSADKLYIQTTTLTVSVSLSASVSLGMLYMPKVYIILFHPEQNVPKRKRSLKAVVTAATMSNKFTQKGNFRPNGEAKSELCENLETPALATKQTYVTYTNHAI
Chain of mGlu7 (P35400 35-915): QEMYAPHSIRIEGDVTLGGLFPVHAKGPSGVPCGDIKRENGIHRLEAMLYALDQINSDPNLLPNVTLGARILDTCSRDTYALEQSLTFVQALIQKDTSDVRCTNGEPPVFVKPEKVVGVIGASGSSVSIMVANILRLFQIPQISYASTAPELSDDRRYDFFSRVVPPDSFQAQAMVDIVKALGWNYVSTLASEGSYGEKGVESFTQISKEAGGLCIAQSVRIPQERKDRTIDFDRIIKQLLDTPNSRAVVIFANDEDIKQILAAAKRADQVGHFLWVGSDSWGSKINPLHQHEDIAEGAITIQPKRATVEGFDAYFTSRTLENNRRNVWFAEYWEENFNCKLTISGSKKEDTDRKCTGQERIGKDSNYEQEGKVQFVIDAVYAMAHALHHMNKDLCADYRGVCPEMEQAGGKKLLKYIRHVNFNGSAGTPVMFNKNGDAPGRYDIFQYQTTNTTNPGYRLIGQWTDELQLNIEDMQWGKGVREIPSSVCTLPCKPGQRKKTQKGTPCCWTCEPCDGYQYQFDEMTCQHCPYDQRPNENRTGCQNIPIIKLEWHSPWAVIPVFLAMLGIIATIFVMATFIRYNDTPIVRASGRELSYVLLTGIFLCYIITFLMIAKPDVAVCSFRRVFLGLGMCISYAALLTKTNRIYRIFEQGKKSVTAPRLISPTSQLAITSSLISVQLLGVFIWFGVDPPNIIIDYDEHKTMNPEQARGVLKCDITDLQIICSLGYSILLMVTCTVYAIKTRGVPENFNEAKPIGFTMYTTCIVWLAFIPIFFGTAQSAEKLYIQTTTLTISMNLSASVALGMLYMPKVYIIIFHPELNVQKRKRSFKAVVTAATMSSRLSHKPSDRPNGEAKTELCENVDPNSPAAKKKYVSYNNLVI

Cc1c(OCCCCOc2ccc(C(=O)CC(C)(C)C)c(O)c2C)cccc1C(=O)O [compound 74, 3-(4-(4-(3,3-Dimethylbutanoyl)-3-hydroxy-2-methylphenoxy)butoxy)-2-methylbenzoic acid]
cocaine-maintained responding ([1]; rats, 0, 10, 20, 40 mg/kg i.p., 60 min pretreatment): dose-dependently decreased; also recorded: decreasing cocaine-maintained responding
cocaine-maintained responding compared with food-maintained responding ([1]; rats, highest dose tested 40 mg/kg i.p., p<0.05): decreased to a greater extent than food-maintained responding; also recorded: cocaine-maintained responding was significantly lower than food-maintained responding
food-maintained responding [2]: dose-dependently decreased
Kp at 30 min [3]: 0.03 ± 0.01

N[C@@]1(C(=O)O)CO[C@H]2[C@H](C(=O)O)[C@H]21 [LY379268]
cocaine-maintained responding [4]: decrease both cocaine- and food-maintained responding
food-maintained responding [5]: decrease both cocaine- and food-maintained responding
striatal neuron loss ([6]; R6/2 mice, 20 mg/kg s.c. daily, at 10 weeks): rescue of a 15-20% striatal neuron loss
phenotype in R6/2 mice ([6]; daily s.c. MTD 20 mg/kg beginning at 4 weeks): dramatically improves the phenotype
GDNF levels in cultured spinal cord astrocytes [7]: enhanced GDNF levels
protection of SMI-32+ motor neurons against excitotoxic death [8]: protected
spinal cord GDNF levels [9]: enhanced spinal cord GDNF levels
neurological disability in SOD1G93A mice [10]: beneficial effect on neurological disability
locomotor activity in reserpine-treated rat ([11]; intracerebroventricular 1, 5, 10, 20 nmol/2 μl): dose-dependent increase in locomotor activity
reserpine-induced akinesia ([11]; systemic 0.1, 1, 10 mg/kg ip): did not reverse reserpine-induced akinesia
protection against nigral infusion of 6-OHDA ([12]; 10 mg/kg/day ip for 7 days): provided some protection against nigral infusion of 6-OHDA
protection against striatal infusion of 6-OHDA ([12]; 10 mg/kg/day ip for 21 days): significant protection in the striatum
rotational behaviour 1 month after unilateral 6-OHDA lesioning ([12]; systemic 0.1, 1, 10 mg/kg ip): failed to effect rotational behaviour
GDNF mRNA and protein levels in the mouse brain [13]: increased
protection against MPTP-induced nigrostriatal damage [14]: highly protective against nigrostriatal damage

COc1cc(C(=O)O)ccc1OCCCCOc1ccc(C(=O)CC(C)C)c(O)c1C [Compound 44, 4-{4-[3-Hydroxy-2-methyl-4-(3-methylbutanoyl)phenoxy]butoxy}-3-methoxybenzoic acid]
General activity at mGlu1 [15]: inactive^b
General activity at mGlu4 [16]: inactive^b
General activity at mGlu5 [17]: inactive^b
General activity at mGlu6 [18]: inactive^b
General activity at mGlu7 [19]: inactive^b
General activity at mGlu8 [20]: inactive^b
activity in HEK293A mGlu2 Gα15 calcium assay [21]: behaves as a PAM; also recorded: PAM activity
activity in TREx293 mGlu3 Gα15 calcium assay [22]: demonstrates mGlu3 PAM activity
AUC(0→t) [23]: 1274.6 ± 246.3 (μmol/L) min
F, oral bioavailability [23]: 41.9%
Plasma ([23]; harvested at or near the Tmax): 16.38 ± 1.1 µM
Kp ([23]; rat, brain and plasma, po, read-out: Brain:Plasma ratio): 0.05 ± 0.01
Tmax ([23]; rat, plasma, po): 1.5 h
Cmax ([23]; rat, po, plasma): 2.75 ± 0.47 µM
AUC(0→t) [24]: 304.6 ± 25.8 (μmol/L)*min
Cmax ([24]; rat, iv, plasma): 6.43 ± 0.39 µM
Vd ([24]; rat, plasma, iv, read-out: Vdss): 0.55 ± 0.04 L/kg
intrinsic agonist activity towards mGlu2 (Agonist Mode) ([25]; absence of an EC20 concentration of agonist): intrinsic agonist activity
activity toward mGlu2 in GIRK thallium-flux assay [25, 27]: Ago-PAM activity
General activity at mGlu2 [25, 28]: Ago-PAM
Emin, minimal response of the concentration-response of agonist ([25]; mGlu2, 10 μM compound): Emin = 90%
activity toward mGlu3 in GIRK thallium-flux assay [26, 27]: PAM activity
General activity at mGlu3 [26, 28]: PAM
Emin, minimal response of the concentration-response of agonist ([26]; mGlu3, 10 μM compound): Emin = 4%
Kp at 30 min [3]: 0.03 ± 0.01
Brain, maximum concentration ([3]; rats, i.p., Tmax 30 min): 0.23 ± 0.10 µM
Plasma, maximum concentration ([3]; rats, i.p., Tmax 30 min): 10.57 ± 2.52 µM
